In patent US9718837B2, “Nitrogen-containing heterocyclic ring substituted dihydroartemisinin derivatives and use thereof” (Shenyang Pharmaceutical University, priority 2013, dated 2017):
Like-named read-outs stand apart in the source and are kept apart here.

How the values were obtained:
[1] = tested on: Human Multidrug Resistant Breast Cancer Cells (MCF-7/Adr); test: Cell growth inhibition by direct cell counting, MCF-7/Adr; assay type: cell-based; conditions: Homo sapiens, NCI/ADR-RES; MCF-7/Adr multidrug resistant cells; read-out: IG50 MCF-7/Adr
Procedure: (§1) Cells were taken out carefully from liquid nitrogen (Frozen pipes), and the cell freezing medium was thawed rapidly in water bath at 37° C. in order to rapidly pass through the temperature range of 0 to 5° C. within which the cell is easily damaged. Cell suspension was sucked with pipette gun and put it into centrifugal tubes under sterile condition, then was centrifuged for 3 min at 1300 r/min. The supernatant was gently discarded, and then added with a fresh medium to pipette and mix the cells. Finally, the cells were transferred into culture flasks, and cultured in a carbon dioxide incubator. The medium was changed once after 24 h.
(§2) After resuscitation, the cells were passed for 2-3 generations till they became stable, then they were used for the experiments. Each passage was based on the standard that all cells were spread over the bottoms of culture flasks.
(§3) Cell suspensions of a certain density (5×10^4 cells/mL) were plated at 24-well plate, 2 mL/well. Different concentration of drugs were added thereto, and incubated or some time. Then, cells were counted under the microscope. The ratio of total number of cells in test group to the total number of cells in control group is the cell growth inhibition rate under the concentration condition. The total number of cells in cell suspension, which were treated by drugs, could be counted by blood count board. Inhibition rate was calculated using the formula: […]
(§4) According to cell growth inhibition rate of each concentration of drugs, half inhibitory concentration could be calculated. (IG50 is the drug concentration, when cell growth inhibition rate was 50%.)
(§5) 7) The Results of the Growth Inhibitory Activity of the Compounds on Human Breast Cancer Cells (MCF-7) and Human Multidrug Resistant Breast Cancer Cells (MCF-7/Adr) were Listed in Table 3.

[2] = tested on: Human Breast Cancer Cells (MCF-7); test: Cell growth inhibition by direct cell counting, MCF-7; assay type: cell-based; conditions: Homo sapiens, MCF7; MCF-7 cells; read-out: IG50 MCF-7
Procedure: as §1, §2, §3, §4, §5

[3] = tested on: murine multidrug resistant leukemia cells (P388/Adr); test: Cell growth inhibition by direct cell counting, P388/Adr; assay type: cell-based; conditions: read-out: IG50 P388/Adr
Procedure: as §1
(§6) Human leukemia cells (HL-60) were cultured in RPMI1640 medium containing 10% (v/v) fetal bovine serum, 100 U/mL penicillin and 100 μg/mL streptomycin. Murine leukemia cells (P388) and murine multidrug resistant leukemia cells (P388/Adr) were cultured in Eagle's minimum essential medium (MEM) containing 10% (v/v) fetal bovine serum, 100 U/mL penicillin and 100 μg/mL streptomycin. All of the above cell lines were incubated in 37° C. incubator with 5% carbon dioxide saturated humidity.
as §2, §3, §4
(§7) 6) The Results of the Growth Inhibitory Activity of the Compounds on Murine Leukemia Cells (P388) and Murine Multidrug Resistant Leukemia Cells (P388/Adr) were Listed in Table 2.

[4] = tested on: Human leukemia cells (HL-60); test: Cell growth inhibition by direct cell counting, HL-60; assay type: cell-based; conditions: HL-60 cells, drug concentration at 50% cell growth inhibition, read-out: IG50 (the source's name)
Procedure: as §1, §6, §2, §3, §4

[5] = tested on: Murine leukemia cells (P388); test: Cell growth inhibition by direct cell counting, P388; assay type: cell-based; conditions: read-out: IG50 P388
Procedure: as §1, §6, §2, §3, §4, §7

IC50 [2] [nM] | melting point [°C] | SMILES | IC50 [4] [nM] | other results
211 | 65 to 67 | C[C@H]1[C@@H](Oc2ccc(Cn3ccnc3)cc2)O[C@@H]2O[C@]3(C)CC[C@H]4[C@H](C)CC[C@@H]1[C@@]24OO3 [Example 2, (10S)—O-[4-((imidazol-1-yl)methyl)phenyl]-dihydroartemisinin] | – | IC50 [1]: 631 nM
– | – | C[C@H]1[C@@H](Oc2ccc(CN3CCCCC3)cc2)O[C@@H]2O[C@]3(C)CC[C@H]4[C@H](C)CC[C@@H]1[C@@]24OO3 [Example 5, (10S)—O-[4-((piperidin-1-yl)methyl)phenyl]-dihydroartemisinin] | – | IC50 ([3]; Mus musculus): 804 nM; IC50 ([4]; Homo sapiens): 228 nM; IC50 ([5]; Mus musculus): 880 nM
– | – | CC1CCC2C(C)[C@@H](Oc3ccc(CN4CCC(N5CCCCC5)CC4)cc3)OC3OC4(C)CCC1C32OO4 (stereo partly drawn) [Example 6, (10S)—O-[4-[(4-(piperidinyl)piperidin-1-yl)methyl]phenyl]-dihydroartemisinin] | 79 | –
– | – | C[C@H]1[C@@H](Oc2ccc(CN3CCN(C)CC3)cc2)O[C@@H]2O[C@@]3(C)CC[C@H]4[C@H](C)CC[C@@H]1[C@@]24OO3 [Example 7, (10S)—O-[4-((4-methylpiperazin-1-yl)methyl)phenyl]-dihydroartemisinin] | 120 | –
– | – | CCN1CCN(Cc2ccc(O[C@H]3O[C@@H]4O[C@@]5(C)CC[C@H]6[C@H](C)CC[C@@H]([C@H]3C)[C@@]46OO5)cc2)CC1 [Example 8, (10S)—O-[4-((4-ethylpiperazin-1-yl)methyl)phenyl]-dihydroartemisinin] | 83 | –
– | – | CC1CCC2C(C)[C@@H](Oc3ccc(CN4CCN(C(C)C)CC4)cc3)OC3OC4(C)CCC1C32OO4 (stereo partly drawn) [Example 9, (10S)—O-[4-((4-isopropylpiperazin-1-yl)methyl)phenyl]-dihydroartemisinin] | 71 | –
– | – | CC1CCC2C(C)[C@@H](Oc3ccc(CN4CCN(c5ccccc5)CC4)cc3)OC3OC4(C)CCC1C32OO4 (stereo partly shown) [Example 10] | 33 | IC50 [3]: 88 nM; IC50 [5]: 70 nM
– | – | CC1CCC2C(C)C(Oc3ccc(CN4CCN(Cc5ccccc5)CC4)cc3)OC3OC4(C)CCC1C32OO4 [Example 16, 10-O-[4-[(4-benzylpiperazin-1-yl)methyl]phenyl]-(10S)-dihydroartemisinin] | 105 | –
– | – | CC1CCC2C(C)[C@@H](Oc3ccc(CN4CCN(CC=Cc5ccccc5)CC4)cc3)OC3OC4(C)CCC1C32OO4 (stereo partly drawn) [Example 17, 10-O-[4-[(4-cinnamylpiperazin-1-yl)methyl]phenyl]-(10S)-dihydroartemisinin] | 59 | –
123 | 165 to 167 | C[C@H]1[C@@H](Oc2ccc(/C=C/C(=O)N3CCCC3)cc2)O[C@@H]2O[C@]3(C)CC[C@H]4[C@H](C)CC[C@@H]1[C@@]24OO3 [Example 20, (10S)—O-{4-[3-oxo-3-(pyrrolidin-1-yl)-1-(E)-propen-1-yl]phenyl}-dihydroartemisinin] | – | –
– | – | C[C@H]1[C@@H](Oc2ccc(/C=C/C(=O)N3CCN(C)CC3)cc2)O[C@@H]2O[C@@]3(C)CC[C@H]4[C@H](C)CC[C@@H]1[C@@]24OO3 [Example 24] | – | IC50 [3]: 918 nM; IC50 [5]: 299 nM
– | – | CCN1CCN(C(=O)/C=C/c2ccc(O[C@H]3OC4OC5(C)CCC6C(C)CCC(C3C)C46OO5)cc2)CC1 (stereo partly drawn) [Example 25, (10S)—O-{4-[3-oxo-3-(4-ethylpiperazin-1-yl)-1-(E)-propen-1-yl]phenyl}-dihydroartemisinin] | – | IC50 [3]: 223 nM; IC50 [5]: 152 nM
– | – | CC1CCC2C(C)[C@@H](Oc3ccc(/C=C/C(=O)N4CCN(c5ccccc5)CC4)cc3)OC3OC4(C)CCC1C32OO4 (stereo partly drawn) [Example 26, (10S)—O-{4-[3-oxo-3-(4-phenylpiperazin-1-yl)-1-(E)-propen-1-yl]phenyl}-dihydroartemisinin] | – | IC50 [3]: 153 nM; IC50 [5]: 145 nM
63 | 160 to 163 | C[C@H]1[C@@H](Oc2ccc(/C=C/C(=O)Oc3ccc(/C=C/C(=O)N4CCCCC4)cc3)cc2)O[C@@H]2O[C@]3(C)CC[C@H]4[C@H](C)CC[C@@H]1[C@@]24OO3 [Example 31, 4-[(10S)-dihydroartemisinin-10-O-yl]phenyl-acrylic acid-4-[3-oxo-3-(piperidin-1-yl)-1-(E)-propen-1-yl]phenyl ester] | – | –
3230 | 73 to 74 | C[C@H]1[C@@H](Oc2ccc(CC(=O)N3CCCC3)cc2)O[C@@H]2O[C@]3(C)CC[C@@H]4[C@H](C)CC[C@@H]1[C@@]24OO3 [Example 33, (10S)—O-{4-[2-(pyrrolidin-1-yl)-2-oxoethyl]phenyl}-dihydroartemisinin] | – | IC50 [1]: 122 nM
1550 | 172 to 173 | C[C@H]1[C@@H](Oc2ccc(CC(=O)Nc3ccccc3)cc2)O[C@@H]2O[C@]3(C)CC[C@@H]4[C@H](C)CC[C@@H]1[C@@]24OO3 [Example 47, (10S)—O-[4-(2-phenylamino-2-oxoethyl)phenyl]-dihydroartemisinin] | – | IC50 [1]: 9.66 nM
